Laboratory results reported in PMC4624854 (Frontiers in Molecular Neuroscience, 2015).

Columns and labels:
α1 GlyR [1] = test system: α1 GlyR; parameters: method as in Raafat et al., 2010; conditions: non-competitive inhibition; ref Raafat et al., 2010; cited from earlier work
α1 GlyR subunits = test system: α1 GlyR subunits; parameters: method as in Xiong et al., 2011; conditions: ref Xiong et al., 2011; cited from earlier work
α3 GlyR subunits = test system: α3 GlyR subunits; parameters: method as in Xiong et al., 2011; conditions: ref Xiong et al., 2011; cited from earlier work
heteromeric α1/β GlyRs = biological target: T1, heteromeric α1/β GlyRs (Homo sapiens, UniProt P23415); experiment: whole-cell patch-clamp of Igly, heteromeric α1/β GlyRs in CHO cells; assay type: cell-based; conditions: for increase of currents induced by subsaturating glycine: 25 μM ginkgolic acid, n = 5
T1 construct: expressed in transfected cells; host or cells: CHO-K1
Description: (§1) For electrophysiological analysis cells were transfected with cDNAs of different receptor-operated channels. One day before the transfection, cells were plated on the coverslips (12–14 mm in diameter), which were placed inside 35-mm cell culture dishes with 2 ml of medium. CHO-K1 cells were transfected with the following cDNAs encoding GlyR subunits: human α1 (1 μg/1 μl), α2 (2 μg/1 μl), α3-long (2 μg/1 μl), and β (in combination with α1 or α2 subunits with the ratio of cDNAs concentrations 1α:5β); or with a mixture of cDNAs encoding GABAA receptors: α1-GFP (1 μg/μl), β2 (1 μg/μl), γ2 (1 μg/μl) using the Lipofectamine 2000 transfection protocol (Life Technology, USA). To facilitate identification of expressing cells, in the case of GlyR, green fluorescent protein (GFP, 0.5 μg/μl) was added to the transfection medium. Visualization of GABAAR expression was achieved by using the α1-GFP construct ([Bueno et al., 1998]). Three hours after the initial exposure of the cells to the cDNAs, a fresh solution replaced the old one. […] Electrophysiological recordings were performed on fluorescent cells 24–72 h after transfection.
Whole-cell recordings were performed at room temperature (20–25 °C) using an EPC-9 amplifier (HEKA Elektronik, Germany). Cells were continuously superfused with external solution containing (mM): NaCl 140, CaCl2 2, KCl 2.8, MgCl2 4, HEPES 20, glucose 10; pH 7.4; 320–330 mOsm. Two intracellular solutions were used for filling recording patch pipettes. First, mainly used, ‘CsCl solution’ contained (mM): CsCl 140, CaCl2 6, MgCl2 2, MgATP 2, NaGTP 0.4, HEPES/CsOH 10, BAPTA/KOH 20; pH 7.3; 290 mOsm. In the experiments performed with CsCl intracellular solution, ionic currents were recorded at holding potential (Vh) –30 mV. […] Two parallel rectangular tubes (100 μm × 100 μm) were positioned 40–50 μm above the recorded cell. The movement of the tubes was controlled by a computer-driven fast exchange system (SF 77A Perfusion Fast-Step, Warner, USA) allowing a 10–90% solution exchange in 3–5 ms, as measured by open electrode controls (1/10 external solution/water). […]

α1 GlyR [2] = biological target: T2, α1 GlyR (Homo sapiens, UniProt P23415); experiment: whole-cell patch-clamp of Igly, α1 GlyR expressed in mouse neuroblastoma (N2a) cells; assay type: cell-based; parameters: expressed in transfected cells; host or cells: mouse neuroblastoma N2a; conditions: 3 μM ginkgolic acid, first two applications (Figure 2B)
T2 sequence (P23415 29-457): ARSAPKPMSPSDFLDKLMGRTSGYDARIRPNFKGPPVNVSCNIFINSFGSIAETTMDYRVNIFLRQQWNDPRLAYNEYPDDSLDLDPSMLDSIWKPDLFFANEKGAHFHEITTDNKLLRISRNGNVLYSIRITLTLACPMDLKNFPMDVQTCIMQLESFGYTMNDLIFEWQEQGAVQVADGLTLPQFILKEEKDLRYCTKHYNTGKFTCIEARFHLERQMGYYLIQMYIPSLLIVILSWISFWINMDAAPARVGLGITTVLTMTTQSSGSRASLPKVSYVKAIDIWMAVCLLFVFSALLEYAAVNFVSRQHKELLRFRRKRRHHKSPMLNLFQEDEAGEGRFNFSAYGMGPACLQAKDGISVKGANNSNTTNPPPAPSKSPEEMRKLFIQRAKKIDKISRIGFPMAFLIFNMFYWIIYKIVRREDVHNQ
Description: (§2) For electrophysiological analysis cells were transfected with cDNAs of different receptor-operated channels. One day before the transfection, cells were plated on the coverslips (12–14 mm in diameter), which were placed inside 35-mm cell culture dishes with 2 ml of medium. CHO-K1 cells were transfected with the following cDNAs encoding GlyR subunits: human α1 (1 μg/1 μl), α2 (2 μg/1 μl), α3-long (2 μg/1 μl), and β (in combination with α1 or α2 subunits with the ratio of cDNAs concentrations 1α:5β); or with a mixture of cDNAs encoding GABAA receptors: α1-GFP (1 μg/μl), β2 (1 μg/μl), γ2 (1 μg/μl) using the Lipofectamine 2000 transfection protocol (Life Technology, USA). […]
(§3) Whole-cell recordings were performed at room temperature (20–25 °C) using an EPC-9 amplifier (HEKA Elektronik, Germany). […] In the experiments performed with CsCl intracellular solution, ionic currents were recorded at holding potential (Vh) –30 mV. […] Two parallel rectangular tubes (100 μm × 100 μm) were positioned 40–50 μm above the recorded cell. The movement of the tubes was controlled by a computer-driven fast exchange system (SF 77A Perfusion Fast-Step, Warner, USA) allowing a 10–90% solution exchange in 3–5 ms, as measured by open electrode controls (1/10 external solution/water). […]

[3] = biological target: T3, α3 GlyR (α3L splice variant) (Homo sapiens, UniProt O75311); experiment: whole-cell patch-clamp of Igly, α3-long (α3L) GlyRs in CHO cells; assay type: cell-based
T3 construct: expressed in transfected cells; host or cells: CHO-K1
T3 sequence (O75311 34-464): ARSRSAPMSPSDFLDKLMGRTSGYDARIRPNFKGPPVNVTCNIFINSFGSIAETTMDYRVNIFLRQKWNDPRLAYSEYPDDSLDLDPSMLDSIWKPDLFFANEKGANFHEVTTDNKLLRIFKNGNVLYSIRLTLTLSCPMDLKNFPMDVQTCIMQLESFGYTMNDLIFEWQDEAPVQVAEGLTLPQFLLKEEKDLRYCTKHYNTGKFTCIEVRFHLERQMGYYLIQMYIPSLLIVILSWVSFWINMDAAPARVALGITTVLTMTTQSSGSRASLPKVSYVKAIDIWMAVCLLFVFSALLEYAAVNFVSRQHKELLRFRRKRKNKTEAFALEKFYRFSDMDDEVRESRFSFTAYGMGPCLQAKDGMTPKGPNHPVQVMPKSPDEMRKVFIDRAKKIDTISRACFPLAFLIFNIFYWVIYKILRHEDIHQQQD
Description: as §1
(§4) Whole-cell recordings were performed at room temperature (20–25 °C) using an EPC-9 amplifier (HEKA Elektronik, Germany). Cells were continuously superfused with external solution containing (mM): NaCl 140, CaCl2 2, KCl 2.8, MgCl2 4, HEPES 20, glucose 10; pH 7.4; 320–330 mOsm. Two intracellular solutions were used for filling recording patch pipettes. First, mainly used, ‘CsCl solution’ contained (mM): CsCl 140, CaCl2 6, MgCl2 2, MgATP 2, NaGTP 0.4, HEPES/CsOH 10, BAPTA/KOH 20; pH 7.3; 290 mOsm. In the experiments performed with CsCl intracellular solution, ionic currents were recorded at holding potential (Vh) –30 mV. In some experiments, ‘Kgluconate solution’ was used, in which CsCl 140 mM was replaced by KCl 20 mM + Kgluconate 120 mM. Recordings with this solutions were performed at Vh = 0 mV. Pipettes were pulled from borosilicate glass capillaries (Harvard Apparatus Ltd, USA) and had resistances of 5–10 MOhms. For rapid replacement of solutions, the fast application system was used in this study. Two parallel rectangular tubes (100 μm × 100 μm) were positioned 40–50 μm above the recorded cell. The movement of the tubes was controlled by a computer-driven fast exchange system (SF 77A Perfusion Fast-Step, Warner, USA) allowing a 10–90% solution exchange in 3–5 ms, as measured by open electrode controls (1/10 external solution/water).
In all experiments, the duration of the pulses of agonist was 2 s. The duration of ginkgolic acid application varied from 20 s to 6 min. Cells with low input resistance (<150 MOhms) and a rapid run-down (>30% with repetitive application) were excluded from analysis.
(§5) All electrophysiological results were analyzed using PatchMaster (HEKA Electronik, Germany) software. Dose–response curves were constructed by fitting values obtained at different concentrations, after normalization.

[4] = test system: protein phosphatase 2C (PP2C); parameters: method as in Ahlemeyer et al., 2001; conditions: ref Ahlemeyer et al., 2001; cited from earlier work
α1 GlyR [5] = biological target: T2, α1 GlyR; experiment: whole-cell patch-clamp of glycine-induced currents (Igly), homomeric α1 GlyRs expressed in CHO cells; conditions: for average Igly (mean current amplitude) after ginkgolic acid: 2 min, control 291 ± 65
Description: The experiments were carried out on cultured Chinese hamster ovary (CHO-K1) cells obtained from the American Type Tissue Culture Collection (ATCC, Molsheim, France) and on mouse neuroblastoma cells (N2a) cells that were maintained in culture conditions as previously described ([Waseem et al., 2010]; [Mukhtarov et al., 2013]).
as §1, §4
In all experiments, the duration of the pulses of agonist was 2 s. […] Cells with low input resistance (<150 MOhms) and a rapid run-down (>30% with repetitive application) were excluded from analysis.
as §5
where I is the normalized current amplitude induced by the agonist at concentration [A], nH is the Hill coefficient and EC50 is the concentration at which a half-maximum response was induced.
Paired and unpaired Student’s t-tests were used for statistical analysis. The data are expressed as the means ± SEM.

α2 GlyRs = biological target: T4, α2 GlyRs (Homo sapiens, UniProt P23416); experiment: whole-cell patch-clamp of Igly, homomeric α2 GlyRs in CHO cells; assay type: cell-based
T4 construct: expressed in transfected cells; host or cells: CHO-K1
T4 sequence (P23416 28-452): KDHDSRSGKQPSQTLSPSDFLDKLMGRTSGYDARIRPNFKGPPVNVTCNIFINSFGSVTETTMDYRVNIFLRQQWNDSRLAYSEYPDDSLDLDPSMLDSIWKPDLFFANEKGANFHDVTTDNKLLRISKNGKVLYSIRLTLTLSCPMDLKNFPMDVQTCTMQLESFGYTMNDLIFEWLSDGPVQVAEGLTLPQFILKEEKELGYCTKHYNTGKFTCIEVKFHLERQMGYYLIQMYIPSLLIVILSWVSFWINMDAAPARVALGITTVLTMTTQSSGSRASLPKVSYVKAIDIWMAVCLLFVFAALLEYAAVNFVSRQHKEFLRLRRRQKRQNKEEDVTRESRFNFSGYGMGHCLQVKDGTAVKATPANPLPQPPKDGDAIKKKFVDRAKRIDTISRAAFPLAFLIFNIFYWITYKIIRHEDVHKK
Description: as §2, §3
(§6) All electrophysiological results were analyzed using PatchMaster (HEKA Electronik, Germany) software. […]

GABAAR α1/β2/γ2 = GABAAR α1/β2/γ2 (Homo sapiens, UniProt P14867+P47870); experiment: whole-cell patch-clamp of GABA-evoked currents, α1/β2/γ2 GABAARs in CHO cells; assay type: cell-based
Description: as §1
Whole-cell recordings were performed at room temperature (20–25 °C) using an EPC-9 amplifier (HEKA Elektronik, Germany). Cells were continuously superfused with external solution containing (mM): NaCl 140, CaCl2 2, KCl 2.8, MgCl2 4, HEPES 20, glucose 10; pH 7.4; 320–330 mOsm. Two intracellular solutions were used for filling recording patch pipettes. […] In the experiments performed with CsCl intracellular solution, ionic currents were recorded at holding potential (Vh) –30 mV. […] Two parallel rectangular tubes (100 μm × 100 μm) were positioned 40–50 μm above the recorded cell. The movement of the tubes was controlled by a computer-driven fast exchange system (SF 77A Perfusion Fast-Step, Warner, USA) allowing a 10–90% solution exchange in 3–5 ms, as measured by open electrode controls (1/10 external solution/water). […]
as §6

[6] = test system: GlyR subunits α1, α2, α3; heteromeric vs homomeric GlyRs; parameters: method as in Kondratskaya et al., 2005; conditions: ref Kondratskaya et al., 2005; cited from earlier work

GABAAR α1/β2/γ2, sequence (P14867 28-456): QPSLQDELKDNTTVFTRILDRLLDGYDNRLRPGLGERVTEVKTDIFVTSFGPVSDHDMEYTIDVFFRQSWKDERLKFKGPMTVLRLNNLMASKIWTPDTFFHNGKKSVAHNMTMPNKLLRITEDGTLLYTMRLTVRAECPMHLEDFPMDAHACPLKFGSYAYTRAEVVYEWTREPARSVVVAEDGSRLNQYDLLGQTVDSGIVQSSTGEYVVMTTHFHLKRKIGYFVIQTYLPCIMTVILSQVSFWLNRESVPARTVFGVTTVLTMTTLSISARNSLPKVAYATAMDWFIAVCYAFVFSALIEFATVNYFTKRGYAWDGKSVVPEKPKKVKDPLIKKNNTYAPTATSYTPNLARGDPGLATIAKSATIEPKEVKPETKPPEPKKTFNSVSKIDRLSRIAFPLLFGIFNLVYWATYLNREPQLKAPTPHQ
GABAAR α1/β2/γ2, sequence (P47870 26-512): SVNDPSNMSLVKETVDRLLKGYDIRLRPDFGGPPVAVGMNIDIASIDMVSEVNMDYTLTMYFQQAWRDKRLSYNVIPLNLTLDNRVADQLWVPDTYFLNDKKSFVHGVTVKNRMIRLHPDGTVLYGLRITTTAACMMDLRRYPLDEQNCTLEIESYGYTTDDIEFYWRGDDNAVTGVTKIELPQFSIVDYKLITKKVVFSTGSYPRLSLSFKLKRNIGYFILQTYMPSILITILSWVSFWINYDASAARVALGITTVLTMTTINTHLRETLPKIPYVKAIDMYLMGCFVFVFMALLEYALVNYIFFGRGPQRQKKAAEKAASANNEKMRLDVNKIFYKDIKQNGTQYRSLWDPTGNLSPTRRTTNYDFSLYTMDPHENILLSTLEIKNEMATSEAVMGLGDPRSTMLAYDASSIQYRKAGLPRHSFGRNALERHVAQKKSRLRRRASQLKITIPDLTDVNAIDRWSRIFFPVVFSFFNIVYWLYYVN
GABAAR α1/β2/γ2, sequence (P18507 40-475 partner): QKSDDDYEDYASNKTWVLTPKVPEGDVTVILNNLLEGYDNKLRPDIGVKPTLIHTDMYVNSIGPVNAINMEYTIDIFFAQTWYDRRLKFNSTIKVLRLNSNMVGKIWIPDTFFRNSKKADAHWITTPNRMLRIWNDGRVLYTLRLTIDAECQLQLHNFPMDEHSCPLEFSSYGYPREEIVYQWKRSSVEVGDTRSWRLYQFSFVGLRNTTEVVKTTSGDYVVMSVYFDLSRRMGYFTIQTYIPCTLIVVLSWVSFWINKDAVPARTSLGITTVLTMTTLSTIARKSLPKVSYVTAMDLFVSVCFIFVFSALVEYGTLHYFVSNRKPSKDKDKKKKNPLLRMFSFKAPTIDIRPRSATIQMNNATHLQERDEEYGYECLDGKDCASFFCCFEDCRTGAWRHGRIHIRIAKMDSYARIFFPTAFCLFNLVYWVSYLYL
T1 sequence (P48167 23-497 partner, one chain of several): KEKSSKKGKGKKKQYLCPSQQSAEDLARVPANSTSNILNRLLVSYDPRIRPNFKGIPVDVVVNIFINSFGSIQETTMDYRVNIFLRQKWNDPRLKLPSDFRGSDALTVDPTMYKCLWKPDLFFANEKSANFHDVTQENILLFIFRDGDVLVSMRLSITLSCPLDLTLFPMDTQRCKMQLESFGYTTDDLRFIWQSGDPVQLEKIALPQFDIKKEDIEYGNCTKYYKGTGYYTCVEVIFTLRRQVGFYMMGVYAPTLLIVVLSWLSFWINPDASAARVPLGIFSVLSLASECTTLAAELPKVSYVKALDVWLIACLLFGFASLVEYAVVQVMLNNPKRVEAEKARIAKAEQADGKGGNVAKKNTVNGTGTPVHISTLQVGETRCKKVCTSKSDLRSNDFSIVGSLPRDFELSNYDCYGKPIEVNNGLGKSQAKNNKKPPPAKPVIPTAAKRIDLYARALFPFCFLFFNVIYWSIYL

O=c1c(O)c(-c2ccc(O)c(O)c2)oc2cc(O)cc(O)c12 [Quercetin]
IC50 (α1 GlyR [1]): ~45 µM

CCCCCc1cc(O)c2c(c1)OC(C)(C)C1CCC(C)=CC21 (centres unmarked) [THC, Δ^9-tetrahydrocannabiol]
concentration from which potentiation begins (α1 GlyR subunits): ≥ 30 nM | concentration from which potentiation begins (α3 GlyR subunits): ≥ 30 nM

CCCCCC/C=C\CCCCCCCc1cccc(O)c1C(=O)O [ginkgolic acid]
increase of currents induced by subsaturating glycine (heteromeric α1/β GlyRs): 82 ± 39% | increase of currents induced by subsaturating glycine (heteromeric α1/β GlyRs; listed as GA): 82%±39 | effect on currents induced by saturated glycine (heteromeric α1/β GlyRs; glycine 0.3–1 mM): did not increase | increase in Igly in N2a cells (α1 GlyR [2]): more than twofold increase | overall effect on the amplitude of whole-cell currents ([3]; 25 μM ginkgolic acid): negligible | change of current induced by 100 μM glycine, one cell with weak potentiation ([3]; 25 μM ginkgolic acid, 20–40 sec pre-treatment, one cell): +4% | mean current in the presence of ginkgolic acid ([3]; 25 μM ginkgolic acid, glycine 100 μM, n = 6, control 338 ± 101): 318 ± 96 pA | mean current after washout of ginkgolic acid ([3]; glycine 100 μM, n = 6, control 338 ± 101): 326 ± 113 pA | concentrations at which effects on PP2C were caused [4]: > 100 µM | threshold of potentiation of α1 GlyR (α1 GlyR [5]): ~30 nM | time of treatment after which potentiation was observed (onset) (α1 GlyR [5]; 30 nM ginkgolic acid, glycine 30 μM): 2 to 3 min | augmentation of Igly after 20–30 s of pre-treatment (α1 GlyR [5]; 100 nM ginkgolic acid, 20–30 s, n = 8): 26 ± 8% | potentiation of Igly following the first 40 s (α1 GlyR [5]; 100 nM ginkgolic acid, 40 s, glycine 30 μM, one cell (Figure 2A)): 54% | average Igly (mean current amplitude) after ginkgolic acid (α1 GlyR [5]; 100 nM ginkgolic acid, glycine 30 μM, n = 8): 467 ± 124 pA | average Igly (mean current amplitude) after ginkgolic acid (α1 GlyR [5]; 100 nM ginkgolic acid, glycine 30 μM, n = 8, listed as GA): 467±124 pA | degree of potentiation of Igly (α1 GlyR [5]; 100 nM ginkgolic acid, 2 min pre-application, glycine 30 μM, n = 8 cells (range in different cells and mean ± SEM)): 51 ± 10% | enhancement of Igly after 30 s (α1 GlyR [5]; 3 μM ginkgolic acid, 30 s, glycine 30 μM): > 30% | effect on amplitudes of currents induced by saturating glycine (α1 GlyR [5]; glycine 0.3–1 mM): not affected | effect on Igly at 1 μM (α2 GlyRs; 1 μM ginkgolic acid): not detectable | effect on the amplitude of Igly at low concentrations (α2 GlyRs; ginkgolic acid <10 μM): no effect | changes in GABA-evoked currents (GABAAR α1/β2/γ2; 25 μM ginkgolic acid, 20–40 s, GABA 1 μM (EC10) or 10 μM (EC50)): did not observe any changes | mean current after ginkgolic acid application (GABAAR α1/β2/γ2; 25 μM ginkgolic acid, GABA 10 μM, n = 16, control 235 ± 65): 228 ± 63 pA | mean current after washout of ginkgolic acid (GABAAR α1/β2/γ2; GABA 10 μM, n = 16, control 235 ± 65): 232 ± 65 pA

NCC(=O)O [glycine, reference compound]
EC50 ([3]; read-out: EC50 to glycine in control, n = 11): 142 ± 9.8 µM

ginkgolide B
preference for α1 vs. α2 GlyR subunits [6]: about 5 fold | preference for α1 vs. α3 GlyR subunits [6]: ~3 fold
